Data as given in patent US20230310542A1, “EPIGENETIC MODIFIERS TO TREAT RETINAL DEGENERATIONS” (priority 2022, published 2023).

Legend:
Type in all cases: in vivo, mouse
[1] = system: WT mice retina; experiment: RT-PCR retinal gene expression, WT mice
Experimental: Whole retinas were isolated from animals by removing the sclera and most of the retinal pigmented epithelium (RPE) layer under PBS. The right eye retinas from each animal were taken for RNA extraction, cDNA preparation and RT-PCR. Immediately after isolation, tissue was flash frozen in liquid nitrogen and stored at −80° C. Left eye retinas from each animal were subjected to fixation, cryopreservation, sectioning, and immunofluorescence staining. RNA extraction and purification followed the manufacturer's protocol from RNeasy Mini Kit and RNA shredder (Qiagen). […] Primers purchased from Integrated DNA Technologies (IDT). For quantitative real-time PCR we used 2× iQ-SYBR Green PCR supermix from Bio-Rad. Samples in triplicate were run on an iQ5 Multicolor Real Time PCR Detection System (Bio-Rad). The relative expression level for each gene was calculated by the 2-ΔΔCt method and normalized to GAPDH.

[2] = system: rd10 mice retina; experiment: RNA-seq of PN24 retina, rd10 mice
Experimental: RNA was extracted from PN24 retina of WT and rd10 animals treated with saline or GSK from PN9 till PN24. RNA integrity number (RIN) was measured using BioAnalyzer (Agilent Technologies) RNA 6000 Nano Kit to confirm RIN above 7 for each sample. The cDNA libraries were prepared using the Illumina® Stranded mRNA Prep, Ligation kit (Illumina) as per the manufacturer's instructions. Briefly, polyA RNA was purified from 200 ng of total RNA using oligo (dT) beads. The extracted mRNA fraction was subjected to fragmentation, reverse transcription, end repair, 3′— end adenylation, and adaptor ligation, followed by PCR amplification and SPRI bead purification (Beckman Coulter). The unique dual index sequences (IDT® for Illumina® RNA UD Indexes Set A, Ligation, Illumina) were incorporated in the adaptors for multiplexed high-throughput sequencing. The final product was assessed for its size distribution and concentration using BioAnalyzer High Sensitivity DNA Kit (Agilent Technologies). The libraries were pooled and diluted to 3 nM using 10 mM Tris-HCl, pH 8.5, and then denatured using the Illumina protocol. The denatured libraries were loaded onto an S1 flow cell on an Illumina NovaSeq 6000 (Illumina) and run for 2×53 cycles according to the manufacturer's instructions. De-multiplexed and adapter-trimmed sequencing reads were generated using Illumina bcl2fastq (released version 2.20.0) allowing no mismatches in the index read. BBDuk was used to trim/filter low-quality sequences using “qtrim=lr trimq=10 maq=10” option. Next, alignment of the filtered reads to the mouse reference genome (mouse Ensembl release 67 (GRCm37/NCBIM37/mm9)) was done using HISAT2 (version 2.1.0) applying --no-mixed and --no-discordant options. Read counts were calculated using HTSeq by supplementing Ensembl gene annotation (release 67: “Mus_musculus.Ensembl.NCBIM37.67.gtf”). The edgeR R package was used to fit the read counts to the negative binomial model along with the generalized linear model (GLM) and differentially expressed genes were determined by the likelihood ratio test method implemented in the edgeR. […] The ggplot2 R package was used for generating heatmaps. Raw counts and differential expression analysis generated during this study are available at GEO Submission GSE169527.
The Database for Annotation, Visualization, and Integrated Discovery (DAVID) was used for GO functional analysis.

[3] = system: WT mice retina; experiment: RNA-seq of PN24 retina, WT mice; conditions: GSK PN9 till PN24 vs saline; FDR<0.05, fold change >2 or <0.5
Experimental: RNA was extracted from PN24 retina of WT and rd10 animals treated with saline or GSK from PN9 till PN24. RNA integrity number (RIN) was measured using BioAnalyzer (Agilent Technologies) RNA 6000 Nano Kit to confirm RIN above 7 for each sample. The cDNA libraries were prepared using the Illumina® Stranded mRNA Prep, Ligation kit (Illumina) as per the manufacturer's instructions. Briefly, polyA RNA was purified from 200 ng of total RNA using oligo (dT) beads. The extracted mRNA fraction was subjected to fragmentation, reverse transcription, end repair, 3′— end adenylation, and adaptor ligation, followed by PCR amplification and SPRI bead purification (Beckman Coulter). […] The final product was assessed for its size distribution and concentration using BioAnalyzer High Sensitivity DNA Kit (Agilent Technologies). […] De-multiplexed and adapter-trimmed sequencing reads were generated using Illumina bcl2fastq (released version 2.20.0) allowing no mismatches in the index read. […] Next, alignment of the filtered reads to the mouse reference genome (mouse Ensembl release 67 (GRCm37/NCBIM37/mm9)) was done using HISAT2 (version 2.1.0) applying --no-mixed and --no-discordant options. Read counts were calculated using HTSeq by supplementing Ensembl gene annotation (release 67: “Mus_musculus.Ensembl.NCBIM37.67.gtf”). […]

[4] = system: H3K4me2, H3K9me2; experiment: Anti-H3K4me2 and anti-H3K9me2 Western blot of WT retina; conditions: WT mice treated PN9 till PN24
Experimental: Both retinas from one animal were flash frozen together in liquid nitrogen and stored at −80° C. Samples for SDS-PAGE were prepared by resuspended retinas in 50 μl PBS. Laemmli sample buffer was added, samples were boiled for 10 min, resolved on Criterion TGX Precast Gel AnyKD (Bio-Rad), transferred to nitrocellulose membrane, and immunoblotted with antibodies anti-H3K9me2 or anti-H3K4me2 diluted 1:5000; anti-ACTB diluted 1:10000; anti-PDE6B (1:500). Secondary goat anti-rabbit/mouse HRP (Jackson Immuno-Research Laboratory, West Grove, PA) was diluted 1:5000. An ECL western blot detection system (Thermo Fisher Scientific) was used to visualize the bound of the primary antibody.

[5] = GSK PN9 till PN24 vs saline, FDR<0.05, fold change >2 or <0.5

Structure (SMILES): O=C(O)c1ccc(CN2CCC(CN[C@@H]3C[C@H]3c3ccccc3)CC2)cc1 [GSK, GSK2879552]
- expression of rod photoreceptor genes ([1]; WT mice treated PN9 till PN24): no changes
- expression of transcription factors of retina development and maturation ([1]; WT retinas, treated PN9 till PN24): slightly increased expression
- number of genes downregulated [2, 5]: 369 genes
- number of genes upregulated [2, 5]: 719 genes
- genes simultaneously upregulated in rd10 and WT mice retina ([2]; GSK, p<0.05, fold change >1.75 or <0.8): approximately 150 genes
- expression of genes specific for rod photoreceptors ([2]; rd10+GSK retina): returned to normal expression levels
- IPA canonical pathways, upregulated ([2]; rd10+GSK vs rd10): major upregulated pathway is the phototransduction pathway
- IPA canonical pathways, down regulated ([2]; rd10+GSK vs rd10, next 4 most important pathways): down regulated pathways were all related to neuroinflammation
- expression of resident microglia markers ([2]; rd10+GSK, Atp6v0d2, Mcoln3, Cd5l, Ctsd, C1qa, Fcrls, Hexb, Gpr34, Junb, Pclaf, Birc5): went back to normal levels of expression
- expression of markers of infiltrating immune cells ([2]; rd10+GSK, H2-Aa, cd74, H2-Ab1, H2-Eb1, Cx3cr1 and others): returned to normal levels of expression
- expression of amacrine cell markers Clrn1 and Efemp1 ([2]; rd10 under GSK inhibition): down-regulated
- expression of cell death genes Capn9, Casp1, 12, AifI ([2]; rd10 under GSK inhibition): downregulated
- expression of Gfap ([2]; rd10 under GSK inhibition, did not reach threshold conditions): decreased
- number of genes downregulated [3]: 13 genes
- number of genes upregulated [3]: 77 genes
- global levels of H3K4me2 [4]: did not change significantly
- global levels of H3K9me2 [4]: No changes
